Assay results as given in paper PMC4891657, “Orexin 2 Receptor Antagonism is Sufficient to Promote NREM and REM Sleep from Mouse to Man” (Scientific Reports, 2016).

Assays:
OX1R [1] = molecular target: T1, OX1R (Macaca mulatta, UniProt F7FE63); assay: Radio-ligand displacement binding, CHO-K1 membranes, rhesus OX1R; parameters: species or system rhesus monkey; conditions: read-out: OX1R affinity (Ki)
T1 sequence (F7FE63 1-425): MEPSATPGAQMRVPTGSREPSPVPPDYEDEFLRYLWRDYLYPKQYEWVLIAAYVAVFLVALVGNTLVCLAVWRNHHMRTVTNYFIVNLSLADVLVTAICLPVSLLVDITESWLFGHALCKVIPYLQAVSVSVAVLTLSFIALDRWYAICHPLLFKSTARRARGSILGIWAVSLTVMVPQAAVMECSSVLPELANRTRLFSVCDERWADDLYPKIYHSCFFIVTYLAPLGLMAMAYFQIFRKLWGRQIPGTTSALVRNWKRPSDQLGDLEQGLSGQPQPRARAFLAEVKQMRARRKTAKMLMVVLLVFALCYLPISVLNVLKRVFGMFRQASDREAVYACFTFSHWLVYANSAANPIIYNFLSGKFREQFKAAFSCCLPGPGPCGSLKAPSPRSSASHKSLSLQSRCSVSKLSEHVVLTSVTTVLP
Procedure: (§1) MK-1064 was evaluated for its ability to inhibit orexin-peptide-A-induced calcium mobilization in CHO cell lines separately expressing OX1R and OX2R from mice, rats, rabbits, dogs, rhesus monkeys and humans.
(§2) Binding and functional blockade of OX1R and OX2R with MK-1064 relative to other 2-SORAs and the DORA, MK-6096, were assessed using membranes from Chinese hamster ovary (CHO)-K1 cells (American Type Tissue Collection, Manassas, VA) transfected to express human, mouse, rat, rabbit, dog, or rhesus monkey OX1R or OX2R receptors, as described previously. The kinetics of binding to human OX2R was assessed by radioligand displacement on CHO-K1 cells expressing the receptor. […] The ON rate analysis was performed by presoaking GF/B filters in 0.3% polyethyleneimine (Sigma) using a Skatron 12-well cell harvester and cold buffer at the indicated time points after addition. For OFF rate determination, binding reactions were allowed to proceed to equilibrium and terminated with 1000x [Kd] of unlabeled antagonist and filtered as above at pre-determined time points. Ultima Gold^TM (PerkinElmer 6013327) scintillation cocktail was added to each filter disc and counted on a PerkinElmer TriCarb 2910 scintillation counter. Data were analyzed using GraphPad® Prism v 6.04 (San Diego, CA, USA). The KON rate was determined according to the equation, KON = (KOBS − KOFF)/[ligand].

OX2R [2] = molecular target: T2, OX2R (Oryctolagus cuniculus, UniProt G1STQ8); assay: Radio-ligand displacement binding, CHO-K1 membranes, rabbit OX2R; conditions: for fold OX2R selectivity (Ki): OX1R Ki / OX2R Ki; for Ki: read-out: OX2R affinity (Ki)
T2 sequence (G1STQ8 1-444): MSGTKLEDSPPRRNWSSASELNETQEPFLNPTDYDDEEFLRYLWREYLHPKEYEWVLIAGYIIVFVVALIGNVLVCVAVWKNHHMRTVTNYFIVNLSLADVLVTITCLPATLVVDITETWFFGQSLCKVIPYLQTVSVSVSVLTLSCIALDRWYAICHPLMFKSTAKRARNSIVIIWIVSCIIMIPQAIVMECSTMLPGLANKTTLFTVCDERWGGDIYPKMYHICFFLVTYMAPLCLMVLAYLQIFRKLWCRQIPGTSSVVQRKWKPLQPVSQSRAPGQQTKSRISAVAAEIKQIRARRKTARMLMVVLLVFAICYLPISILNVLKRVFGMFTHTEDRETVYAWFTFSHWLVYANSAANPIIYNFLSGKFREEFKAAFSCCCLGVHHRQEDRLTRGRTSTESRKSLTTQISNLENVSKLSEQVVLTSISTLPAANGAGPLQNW
Procedure: as §1, §2

OX2R [3] = molecular target: T2, OX2R; assay: Inhibition of orexin-peptide-A-induced calcium mobilization in CHO cells, rabbit OX2R; type: cell-based; conditions: for fold OX2R selectivity (Kb): OX1R Kb / OX2R Kb
Procedure: as §1, §2

OX1R [4] = molecular target: T3, OX1R (Mus musculus, UniProt P58307); assay: Radio-ligand displacement binding, CHO-K1 membranes, mouse OX1R; conditions: read-out: OX1R affinity (Ki)
T3 construct: expressed in transfected cells; host or cells: CHO-K1
T3 sequence (P58307 1-416): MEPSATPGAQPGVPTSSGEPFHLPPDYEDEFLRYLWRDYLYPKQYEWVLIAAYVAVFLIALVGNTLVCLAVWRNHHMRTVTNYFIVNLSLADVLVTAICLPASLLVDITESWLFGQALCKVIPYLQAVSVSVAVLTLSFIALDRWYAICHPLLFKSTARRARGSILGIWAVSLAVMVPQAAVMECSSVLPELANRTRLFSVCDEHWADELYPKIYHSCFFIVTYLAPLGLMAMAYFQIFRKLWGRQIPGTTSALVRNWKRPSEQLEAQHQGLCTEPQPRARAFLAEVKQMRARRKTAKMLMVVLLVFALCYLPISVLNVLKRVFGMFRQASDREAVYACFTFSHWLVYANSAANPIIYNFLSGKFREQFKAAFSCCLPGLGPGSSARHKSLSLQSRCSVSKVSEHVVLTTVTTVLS
Procedure: as §1, §2

OX2R [5] = molecular target: T4, OX2R (Mus musculus, UniProt P58308); assay: Inhibition of orexin-peptide-A-induced calcium mobilization in CHO cells, mouse OX2R; type: cell-based; conditions: for fold OX2R selectivity (Kb): OX1R Kb / OX2R Kb
T4 construct: expressed in transfected cells; host or cells: CHO-K1
T4 sequence (P58308 1-460): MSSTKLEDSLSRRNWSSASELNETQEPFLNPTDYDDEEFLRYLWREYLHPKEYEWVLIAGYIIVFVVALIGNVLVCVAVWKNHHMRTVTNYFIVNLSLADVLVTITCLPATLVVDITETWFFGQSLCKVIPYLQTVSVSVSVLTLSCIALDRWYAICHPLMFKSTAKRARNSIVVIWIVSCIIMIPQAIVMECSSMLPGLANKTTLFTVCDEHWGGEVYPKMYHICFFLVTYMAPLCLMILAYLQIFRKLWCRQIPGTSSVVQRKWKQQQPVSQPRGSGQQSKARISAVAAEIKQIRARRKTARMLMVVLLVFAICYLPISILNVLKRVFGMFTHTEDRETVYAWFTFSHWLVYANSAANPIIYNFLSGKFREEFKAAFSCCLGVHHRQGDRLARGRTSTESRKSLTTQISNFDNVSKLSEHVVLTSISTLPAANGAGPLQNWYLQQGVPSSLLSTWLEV
Procedure: as §1, §2

OX1R [6] = molecular target: T3, OX1R; assay: Inhibition of orexin-peptide-A-induced calcium mobilization in CHO cells, mouse OX1R; type: cell-based
Procedure: as §1, §2

Structure (SMILES) | Ki (OX1R [1]) | fold OX2R selectivity (Ki) (OX2R [2]) | Ki (OX2R [2]) | Kb (OX2R [3]) | fold OX2R selectivity (Kb) (OX2R [3]) | Ki (OX1R [4]) | Kb (OX2R [5]) | fold OX2R selectivity (Kb) (OX2R [5]) | Kb (OX1R [6])
COc1ccc(CNC(=O)c2cc(-c3cncc(C)c3)ncc2-c2ccccc2)nc1OC [2-SORA-7] | 1.34 µM | [9986] fold | 0.00044 µM | 0.022 µM | [764] fold | 1.69 µM | 0.014 µM | [568] fold | 7.95 µM
COc1ccc(CNC(=O)c2cc(-c3cc(Cl)cc(Cl)c3)cnc2-c2cccnc2)cc1OC [2-SORA-18] | 0.132 µM | [2410] fold | 0.0001 µM | 0.03 µM | [17] fold | 0.098 µM | 0.024 µM | [9] fold | 0.208 µM
COc1ccc(CNC(=O)c2cc(-c3cncc(Cl)c3)cnc2-c2ccccn2)nc1OC [MK-1064, 5″-chloro-N-[(5,6-dimethoxypyridin-2-yl)methyl]-2,2′:5′, 3″-terpyridine-3′-carbo xamide] | 0.815 µM | [4780] fold | 0.00051 µM | 0.01 µM | [737] fold | 1.16 µM | 0.007 µM | [1471] fold | 10.3 µM
COc1ccc(CNC(=O)c2cc(-c3cncc(C)c3)ncc2-c2nccs2)nc1OC [MK-3697] | 2.18 µM |  | 0.00101 µM | 0.027 µM |  | 3.95 µM | 0.012 µM |  | 27.2 µM
Cc1ccc(-c2ncccn2)c(C(=O)N2C[C@H](COc3ccc(F)cn3)CC[C@H]2C)c1 [MK-6096] | 0.0125 µM | [9.3] fold | 0.00028 µM | 0.016 µM | [0.8] fold | 0.0029 µM | 0.01 µM | [0.9] fold | 0.009 µM
